Data from patent US20240307430A1, “PHARMACEUTICAL COMPOSITION CONTAINING NICOTINAMIDE ADENINE DINUCLEOTIDE (NAD) AND CD38 INHIBITOR AND APPLICATION THEREOF” (HEFEI KNATURE BIO-PHARM CO., LTD., priority 2021, published 2024).

Legend:
[1] = test system: Doxorubicin-induced cardiotoxicity (DIC) model; assay: Echocardiography of cardiac function (EF, FS) in the DIC model; assay type: in vivo, C57BL/6 male mice
Method: (§1) Circulation. 2016; 133:1668-1687”. 8-week-old C57BL/6 male mice were injected with 5 mg/kg of doxorubicin (DOX) or normal saline via the tail vein, and the administration was performed once a week for four consecutive weeks. Four weeks after the last administration, the mice were subjected to echocardiography to detect the cardiac function, and myocardial tissues of the mice were taken to detect the NAD^+ content. Mice were intraperitoneally injected with the same volume of saline as that of the experimental group once a day, and the duration cycle was the same as that of the DIC model. After administration, mice were subjected to echocardiography to detect the cardiac function, and myocardial tissues were taken from mice to detect NAD^+ content. CD38 inhibitor 78c was dissolved with DMSO. Mice were injected intraperitoneally with 10 mg/kg CD38 inhibitor 78c at 3 hours before doxorubicin injection in the DIC model. 78c was administered once a day until the endpoint of the DIC model. At the end of the model, echocardiography was performed on the mice to detect the cardiac function of the mice, and myocardial tissues were taken from the mice to detect NAD^+ content. NAD was dissolved in saline. Mice were injected intraperitoneally with 50 mg/kg NAD at 3 hours before doxorubicin injection in the DIC model. NAD was administered once a day, which lasted until the endpoint of the DIC model. At the end of the model, mice were subjected to echocardiography to detect cardiac function, and myocardial tissues were taken from mice to detect NAD^+ content. CD38 inhibitor 78c was dissolved in DMSO. Mice were injected intraperitoneally with 50 mg/kg NAD and 10 mg/kg CD38 inhibitor 78c at 3 hours before doxorubicin injection in the DIC model. The CD38 inhibitor 78c was administered once a day, which lasted until the endpoint of the DIC model. At the end of the model, mice were subjected to echocardiography to detect cardiac function, and myocardial tissues were taken from mice to detect NAD^+ content.

[2] = test system: Doxorubicin-induced cardiotoxicity (DIC) model; assay: NAD+ content of cardiac tissues in the doxorubicin-induced cardiotoxicity (DIC) model; assay type: in vivo, C57BL/6 male mice; conditions: FIG. 2
Method: as §1, with “At the end of the model, mice were subjected to echocardiography to detect cardiac function, and myocardial tissues were taken from mice to detect NAD^+ content. CD38 inhibitor 78c was dissolved in DMSO. Mice were injected intraperitoneally with 50 mg/kg NAD and 10 mg/kg CD38 inhibitor 78c at 3 hours before doxorubicin injection in the DIC model. The CD38 inhibitor 78c was administered once a day, which lasted until the endpoint of the DIC model. At the end of the model, mice were subjected to echocardiography to detect cardiac function, and myocardial tissues were taken from mice to detect NAD^+ content.” left out

CD38 [3] = target: T1, CD38 (Homo sapiens, UniProt P28907); conditions: from the literature, Cell Metabolism 2018; cited from earlier work
T1 sequence (P28907 1-300): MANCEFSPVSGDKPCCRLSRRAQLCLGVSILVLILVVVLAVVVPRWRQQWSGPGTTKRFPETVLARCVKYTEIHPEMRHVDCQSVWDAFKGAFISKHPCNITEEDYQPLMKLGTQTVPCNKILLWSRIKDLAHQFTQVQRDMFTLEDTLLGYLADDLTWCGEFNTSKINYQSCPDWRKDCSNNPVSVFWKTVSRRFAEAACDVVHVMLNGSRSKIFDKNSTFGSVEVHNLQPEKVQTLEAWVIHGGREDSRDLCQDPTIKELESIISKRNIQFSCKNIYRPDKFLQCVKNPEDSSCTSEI

CD38 [4] = assay: CD38 expression in mouse heart tissues after doxorubicin treatment; assay type: in vivo, mice; conditions: after doxorubicin treatment (5 mg/kg via tail vein, once a week for four weeks); mainly in CD31-positive endothelial cell region; FIG. 1
Method: 8-week-old C57BL/6 male mice were injected with 5 mg/kg of doxorubicin (DOX) or normal saline via the tail vein, and the administration was performed once a week for four consecutive weeks. Four weeks after the last administration, the mice were subjected to echocardiography to detect the cardiac function, and myocardial tissues of the mice were taken to detect the NAD^+ content.

COCCOC1CCC(Nc2cc(=O)n(C)c3ccc(-c4cncs4)cc23)CC1 (stereo not shown) [compound 78c]
cardiac function (EF, FS) ([1]; DOX-treated mice, i.p. once a day from 3 hours before doxorubicin, NAD 50 mg/kg, 78c 10 mg/kg, FIGS. 3a and 3b): improved cardiac function
cardiac NAD+ content ([2]; DOX-treated mice, i.p. once a day from 3 hours before doxorubicin, NAD 50 mg/kg, 78c 10 mg/kg): modestly increased
inhibitory activity against CD38 (CD38 [3]): has been demonstrated

COc1cccc2c1C(=O)c1c(O)c3c(c(O)c1C2=O)C[C@@](O)(C(=O)CO)C[C@@H]3O[C@H]1C[C@H](N)[C@H](O)[C@H](C)O1 [doxorubicin]
ejection fraction (EF) of the mouse heart ([1]; doxorubicin 5 mg/kg via tail vein once a week for four weeks, echocardiography, FIG. 3a): significantly reduced
fractional shortening (FS) of the mouse heart ([1]; doxorubicin 5 mg/kg via tail vein once a week for four weeks, echocardiography, FIG. 3b): significantly reduced
CD38 expression in mouse heart tissues (CD38 [4]): significantly increased
NAD+ content of the cardiac tissues ([2]; doxorubicin 5 mg/kg via tail vein once a week for four weeks, compared with the control group): significant decrease
